Data from US20100074897A1, “Methods and Compositions related to HIF-1 alpha” (University of Utah Research Foundation, priority 2006, published 2010).

What was measured:
[1] = system: HIF-2α; assay: Western blot after siRNA transfection of HCT116 cells; format: cell-based, human
Description: (§1) Western Blot. Western blot analysis was carried out as described previously.
(§2) RNA Interference. Transfection with siRNA duplexes and siRNA sequence information were described previously (Koshiji et al. 2005). CHK1 siRNA was described previously (Zhao et al. 2002). Luciferase siRNA was used as negative control.

[2] = system: HIF-1α; assay: as above; format: cell-based, human
Description: as §1, §2

[3] = system: CDC25A; assay: CDC25A and PGK1 mRNA by real-time RT-PCR in siRNA-transfected HCT116 cells; format: cell-based, human; details: siRNA 24 h then hypoxia 16 h
Description: Real-Time RT-PCR. Real-time RT-PCR was performed essentially as described previously (Koshiji et al. 2005). Primer and probe (Applied Biosystems) sequences were as follows: CDC25A, forward 5′-[…]-3′ (SEQ ID NO: 25), reverse 5′-[…]-3′ (SEQ ID NO: 26), probe 5′-FAM-[…]-MGB-3′ (SEQ ID NO: 27). PGK-1 (FAM-MGB probe) and ACTB (VIC-MGB probe) were detected with endogenous control reagents from Applied Biosystems. β-actin primers and probe were included into each reaction for normalization. All the experiments were repeated three times in triplicate, and representative results were presented in mean±standard error.
as §2

[4] = system: NBS1; assay: NBS1 mRNA levels by real-time PCR in HCT116 cells; format: cell-based, human; details: siRNA, hypoxia 1% O2 16 h
Description: HCT116 TP53^+/+, HCT116 TP53^−/− cells (Koshiji et al., 2004), and U-2 OS were grown in McCoy's 5A medium (Invitrogen), and HeLa cells in DMEM. For hypoxic treatment, cells were incubated in a hypoxic chamber (Innova CO-48, New Brunswick Scientific) maintaining 1% O2 and 5% CO2. Recombinant adenovirus generation and infection were as previously described (Koshiji et al., 2004).
Total RNA extraction, reverse transcription, and quantitative PCR were performed essentially as described previously (Koshiji et al., 2005). Taqman Gene Expression Assay kits for NBS1, MRE11A, RAD50, MSH2, and ACTB were purchased from Applied Biosystems. All experiments were repeated three times in triplicates, and representative results were presented as means±standard errors.

[5] = system: CDC25A promoter; assay: CDC25A reporter (luciferase) assay in HCT116 cells; format: cell-based, human; details: hypoxia
Description: Reporter Assay. Reporter assays were conducted as described previously (Huang et al. 2002). The Myc effect on the reporter was examined by cotransfection with 0.4 μg pMyc (Koshiji et al. 2004a) or as specified.

[6] = system: NBS1; assay: NBS1 protein levels by immunoblot in U-2 OS cells expressing PAS-B variants; format: cell-based; details: forced expression in U-2 OS cells
Description: Immunoprecipitations and Western blot was performed essentially as described previously (Huang et al., 1998; Koshiji et al., 2005). In vitro translation and immunoprecipitations are described as before (Gu et al., 2001; Koshiji et al., 2005). The wheat germ extract system was purchased from Promega. λ protein phosphatase (New England Biolabs) and resveratrol (Sigma) with indicated concentrations were added to the in vitro translated products before immunoprecipitations.
U-2 OS cells were transfected with the Nucleofector system (Amaxa). Briefly, 1×10^6 cells were suspended in 100 μl pre-warmed Nucleofector Solution Kit V containing 2 μg plasmids. After electroporation the cells were transferred immediately into pre-warmed complete McCoy's 5A medium and seeded in 6-well plates. Cells were harvested 48 h after transfection.

[7] = system: β-catenin; assay: immunoblotting of epithelial marker in retrovirally infected U-2 OS cells; format: cell-based
Description: A, Cells as indicated were infected by retroviruses expressing EYFP, EYFP-PAS-B fusion, and EYFP-PAS-B mutant. […] B, U-2 OS and those infected with retroviruses as above were analyzed by immunoblotting individual protein expression as indicated.

[8] = target: T1, Sp1 (Oryctolagus cuniculus, UniProt G1SL61); assay: anti-Sp1 immunoprecipitation of in vitro translated products; format: binding, rabbit; details: translated in rabbit reticulocyte lysate
T1 construct: from tissue; host or cells: rabbit reticulocyte lysate (in vitro translation system)
T1 sequence (G1SL61 1-788): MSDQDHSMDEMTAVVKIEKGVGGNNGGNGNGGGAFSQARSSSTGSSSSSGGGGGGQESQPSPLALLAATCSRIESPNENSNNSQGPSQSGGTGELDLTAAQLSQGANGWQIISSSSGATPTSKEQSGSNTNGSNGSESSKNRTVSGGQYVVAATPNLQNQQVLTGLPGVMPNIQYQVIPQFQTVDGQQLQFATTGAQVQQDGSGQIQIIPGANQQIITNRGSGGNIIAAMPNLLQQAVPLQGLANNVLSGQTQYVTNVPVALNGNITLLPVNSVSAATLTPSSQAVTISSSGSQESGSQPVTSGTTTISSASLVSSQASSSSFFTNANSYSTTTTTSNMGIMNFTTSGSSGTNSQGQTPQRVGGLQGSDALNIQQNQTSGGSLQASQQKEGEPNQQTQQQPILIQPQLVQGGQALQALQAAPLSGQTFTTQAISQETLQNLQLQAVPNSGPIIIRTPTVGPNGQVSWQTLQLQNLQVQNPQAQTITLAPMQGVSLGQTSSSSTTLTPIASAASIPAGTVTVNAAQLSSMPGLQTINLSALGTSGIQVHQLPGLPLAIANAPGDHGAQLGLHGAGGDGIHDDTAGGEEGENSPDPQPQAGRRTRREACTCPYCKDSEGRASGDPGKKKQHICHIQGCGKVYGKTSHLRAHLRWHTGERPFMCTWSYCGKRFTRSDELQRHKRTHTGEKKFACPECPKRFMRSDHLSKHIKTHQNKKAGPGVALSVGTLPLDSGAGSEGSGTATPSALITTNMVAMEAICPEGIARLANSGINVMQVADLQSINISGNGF
Description: Previously, it was shown that Myc displacement is mediated by the N-terminal HIF-1α (1-329), which competes with Myc for Sp1 binding in the MSH2 promoter (Koshiji et al, 2005). […] […] […] Of note, removal of part of the PAS-B from the C terminus (codon 299-329) destroyed Sp1 binding.
Immunoprecipitations and Western blot was performed essentially as described previously (Huang et al., 1998; Koshiji et al., 2005). In vitro translation and immunoprecipitations are described as before (Gu et al., 2001; Koshiji et al., 2005). […]

[9] = system: U-2 OS cells; assay: anchorage-independent growth on soft agar; format: cell-based; details: retrovirally infected U-2 OS cells
Description: (§3) A, retrovirally infected HCT116 cells expressing EYFP, HIF-1α PAS-B, and mutant were assayed for Matrigel invasion. Images of cells on the membrane side were taken 24 h later. B, U-2 OS cells infected as above were assayed for anchorage-independent growth on soft agar. HIF-1α PAS-B expressed cells gave rise to formation of colonies 40 times more than others. HCT116 cells (known to grow on soft agar) were used as a positive control. Mock, uninfected cells.

[10] = system: U-2 OS cells; assay: immunofluorescent staining of γ-H2AX foci (DNA DSBs); format: cell-based; details: U-2 OS cells transiently expressing PAS-B variants
Description: To ascertain the functional relevance of NBS1 repression by hypoxia, the extent of DNA damage was assessed by immunofluorescent staining of γ-H2AX foci, a most sensitive method for quantifying DNA DSBs (Rogakou et al, 1998, 1999). […] Furthermore, results also show strikingly colocalized foci of γ-H2AX and 53BP1, the latter of which is known to interact with various DNA repair proteins including γ-H2AX in response to DSBs (Schultz et al, 2000). Thus, hypoxic cells experience DNA DSBs, presumably resulting from the NBS1 repression.
Immunofluorescence staining was performed essentially as described previously (Rogakou et al, 1999) with mouse anti-γ-H2AX antibody (Upstate) and rabbit anti-53BP1 (Novus Biologicals). Secondary antibodies were anti-mouse Alexa-546 and anti-rabbit Alexa-488 (Molecular Probes). Samples were mounted in antifade media, and were examined by fluorescent and laser-scanning confocal microscopy with a Nikon PCM 2000.

[11] = system: HCT116 cells; assay: Matrigel invasion; format: cell-based, human; details: retrovirally infected HCT116 cells, 24 h
Description: as §3

[12] = system: U-2 OS cells; assay: tumor formation in a xenografted mouse model; format: in vivo; details: athymic mice, subcutaneous injection of 1 million U-2 OS cells, within three weeks
Source text: Female BALB/c-nu/nu mice were subjected to bilateral, subcutaneous injections in the back with 1 million of U-2 OS cells, or those expressing EYFP, HIF-1α PAS-B, or the HIF-1α PAS-B mutant. A total of ten mice were divided into two groups with one type of cells injected on one side and another on the other side.

[13] = target: synthetic peptide harboring HIF-2α T324V mutation
[14] = target: synthetic peptide including HIF-2α residues 314-331
[15] = target: synthetic peptide corresponding to HIF-1α residues 299-329

5′-AACTGATGACCAGCAACTTGA-3′ [HIF1A siRNA]
HIF-2α levels [1]: remained unaffected | decrease of HIF-1α protein levels [2]: > 80% | effect on hypoxic CDC25A down-regulation and PGK1 up-regulation [3]: effectively blocked the CDC25A down-regulation | effect on NBS1 and MSH2 downregulation and PGK1 upregulation in hypoxic cells [4]: abrogated | hypoxic inhibition of CDC25A reporter expression [5]: abrogated

PAS1B: HIF-1α PAS-B domain (codon 194-329)
NBS1 protein levels [6]: sufficient to eliminate NBS1 protein levels | β-catenin protein expression [7]: marked decrease | Sp1 binding [8]: sufficient for Sp1 interaction | formation of colonies on soft agar relative to others [9]: 40 times | γ-H2AX foci colocalized with 53BP1 [10]: significantly increased | invasiveness versus controls [11]: much more invasive | tumor nodules formation [12]: formed tumor nodules

B1: recombinant PKD1 (Upstate Biotechnology) (protein)
chain: MSAPPVLRPPSPLLPVAAAAAAAAAALVPGSGPGPAPFLAPVAAPVGGISFHLQIGLSREPVLLLQDSSGDYSLAHVREMACSIVDQKFPECGFYGMYDKILLFRHDPTSENILQLVKAASDIQEGDLIEVVLSASATFEDFQIRPHALFVHSYRAPAFCDHCGEMLWGLVRQGLKCEGCGLNYHKRCAFKIPNNCSGVRRRRLSNVSLTGVSTIRTSSAELSTSAPDEPLLQKSPSESFIGREKRSNSQSYIGRPIHLDKILMSKVKVPHTFVIHSYTRPTVCQYCKKLLKGLFRQGLQCKDCRFNCHKRCAPKVPNNCLGEVTINGDLLSPGAESDVVMEEGSDDNDSERNSGLMDDMEEAMVQDAEMAMAECQNDSGEMQDPDPDHEDANRTISPSTSNNIPLMRVVQSVKHTKRKSSTVMKEGWMVHYTSKDTLRKRHYWRLDSKCITLFQNDTGSRYYKEIPLSEILSLEPVKTSALIPNGANPHCFEITTANVVYYVGENVVNPSSPSPNNSVLTSGVGADVARMWEIAIQHALMPVIPKGSSVGTGTNLHRDISVSISVSNCQIQENVDISTVYQIFPDEVLGSGQFGIVYGGKHRKTGRDVAIKIIDKLRFPTKQESQLRNEVAILQNLHHPGVVNLECMFETPERVFVVMEKLHGDMLEMILSSEKGRLPEHITKFLITQILVALRHLHFKNIVHCDLKPENVLLASADPFPQVKLCDFGFARIIGEKSFRRSVVGTPAYLAPEVLRNKGYNRSLDMWSVGVIIYVSLSGTFPFNEDEDIHDQIQNAAFMYPPNPWKEISHEAIDLINNLLQVKMRKRYSVDKTLSHPWLQDYQTWLDLRELECKIGERYITHESDDLRWEKYAGEQGLQYPTHLINPSASHSDTPETEETEMKALGERVSIL
PKD1-mediated phosphorylation in an in vitro kinase assay (c.p.m.) [13]: replacement of Thr-324 with valine abolished phosphorylation | PKD1-mediated phosphorylation in an in vitro kinase assay (c.p.m.) [14]: a HIF-2α peptide, but not its HIF-1α counterpart, was robustly phosphorylated | PKD1-mediated phosphorylation in an in vitro kinase assay (c.p.m.) [15]: a HIF-2α peptide, but not its HIF-1α counterpart, was robustly phosphorylated
